Results from patent publication US9801903B2, “Targeting cancer with metabolic therapy and hyperbaric oxygen” (priority 2012, dated 2017).

Tested on: VM-M3/Fluc cells
Experiment: Whole animal tumor bioluminescence (tumor size and metastatic spread)
Format: in vivo, VM/Dk mice
Conditions: Example 2; day 21 post-inoculation; FIG. 8
Source text: VM-M3/Fluc cells (T. Seyfried; Boston College) were obtained from a spontaneous tumor in a VM/Dk inbred mouse and adapted to cell culture (Huysentruyt et al., Metastatic cancer cells with macrophage properties: evidence from a new murine tumor model. Intl J Can. 2008, 123(1):73-84). […] VM-M3/Fluc cells are transfected with the firefly luciferase gene which produces a bioluminescent product in the presence of the enzymatic substrate luciferin (Shelton, et al. (2010) A novel pre-clinical in vivo mouse model for malignant brain tumor growth and invasion. Journal of neuro-oncology 99: 165-176). Bioluminescence can be detected and measured with the Xenogen IVIS Lumina System (Caliper LS). […] Bioluminescent signal was recorded using a 1 second exposure time on the IVIS Lumina cooled CCD camera. Progression of the metastatic cancer was measured by tracking the bioluminescent signal of the whole animal over time. Tumor bioluminescence will be measured once weekly for the duration of the study.
Tumor progression was measured using bioluminescence on the Xenogen IVIS Lumina cooled CCD camera (Caliper LS, Hopkinton, Mass.). […] Whole animal bioluminescent signal was measured in photons/sec once a week as an indicator of metastatic tumor size and spread. Tumor progression was measured 21 days after tumor cell inoculation.

Compound: CC(O)CCO (centres unmarked) [BD, 1,3-butanediol]
- tumor bioluminescence / tumor growth and metastasis: greatly reduced tumor growth and reduced metastasis of the tumor

Compound: CC(=O)CC(=O)OCC[C@@H](C)OC(=O)CC(C)=O [KE, R,S-1,3-butanediol-diacetoacetate ester]
- tumor bioluminescence / tumor growth and metastasis: greatly reduced tumor growth and reduced metastasis of the tumor
